Measured values from US20240391954A1, “MC4R AGONIST PEPTIDES” (The Regents of the University of Michigan, priority 2021, published 2024).
Where two headings read alike, the source gives them in different places. Positions of bridges follow the written chain, without caps; N, C: chain ends. Non-standard residues stand in square brackets, D forms with d. Residues, ends and D or L forms follow the SMILES beside them. dPhe(4-Br) = N[C@H](Cc1ccc(Br)cc1)C(=O)O; NMeR = CN[C@@H](CCCNC(=N)N)C(=O)O; dTic = O=C(O)[C@H]1Cc2ccccc2CN1; Nle = CCCC[C@H](N)C(=O)O

Columns and labels:
human MC3R = target: T1, human MC3R (Homo sapiens, UniProt P41968); experiment: split-luciferase cAMP sensor assay, agonist mode (measurement window 1), hMC3R; assay type: cell-based; settings: for Emax: read-out: MC3R cAMP % max activation; for EC50: read-out: MC3R cAMP EC50
T1 construct: expressed in transfected cells; host or cells: HEK-293 cells stably expressing the GScAMP22F split-luciferase cAMP sensor (parent reporter line from Promega); MC3R clone generated in-house, G418 selection
Description: (§1) The stable cell lines were grown and maintained in selection media consisting of Dulbecco's modified Eagle media (DMEM) with 4.5 g/l D-glucose, and 4 mM L-glutamine (Thermo Fisher Scientific, Waltham, MA), supplemented with 10% fetal bovine serum, 100 units/ml penicillin, 100 μg/ml streptomycin, 2.5 μg/ml amphotericin B, 200 μg/ml hygromycin B (for positive selection of the GScAMP22f luciferase reporter), and Geneticin™ (G418) 700 μg/ml (for MC3R or MC4R selection). Actual serum concentration during the assay is estimated to be about 1%. Cell line identity is routinely verified by qPCR and MC3R-and MC4R-specific oligonucleotides.
(§2) The assay for the determination of the cAMP response in live cells was described previously. […] Cells were seeded at a density of 20,000 cells per well using 384-well poly-D lysine-coated, clear bottom, and black-wall assay plates (Corning Inc. Corning, NJ). Cells were allowed to attach to the plates for 18 to 24 h after which growth media was removed and 20 μl of 4% D-luciferin (Promega) in CO2 independent, serum-free medium (Thermo Fisher Scientific) was added to each well. […] Intracellular cAMP levels were measured using an FDSS 7000EX Functional Drug Screening System (Hamamatsu Photonics, Hamamatsu, Japan) in the Center for Chemical Genomics at the Life Sciences Institute. This instrument allowed the in-line addition of test-peptides and receptor agonists while simultaneously acquiring the luminescence signal from live cells. […] A submaximal forskolin (20 μM) concentration was also included to serve as a normalization reference to account for cell number variations and differences in assay transducer efficiency between cell lines.
(§3) With this set up it was possible to evaluate the direct effect of the test-peptides on the MC3R and MC4R cell lines during measurement window 1, while the antagonist profile in the presence of EC90 α-MSH was determined on measurement window 2. […] EC50 or IC50 potency values were determined by non-linear regression by fitting the data to a sigmoid four-parameter variable slope model using the GraphPad Prism version 8.4 software package (San Diego CA).

human MC4R = target: T2, human MC4R (Homo sapiens, UniProt P32245); experiment: split-luciferase cAMP sensor assay, agonist mode (measurement window 1), hMC4R; assay type: cell-based; settings: for Emax: read-out: MC4R cAMP % max activation; for EC50: read-out: MC4R cAMP EC50
T2 construct: host or cells: HEK-293 cells stably expressing the GScAMP22F split-luciferase cAMP sensor and hMC4R, G418 selection
Description: as §1, §2, §3

[1] = % maximal activation, agonist mode
[2] = agonist mode, hMC3R stable cell line
[3] = agonist mode, hMC4R stable cell line

T2 sequence (P32245 whole entry): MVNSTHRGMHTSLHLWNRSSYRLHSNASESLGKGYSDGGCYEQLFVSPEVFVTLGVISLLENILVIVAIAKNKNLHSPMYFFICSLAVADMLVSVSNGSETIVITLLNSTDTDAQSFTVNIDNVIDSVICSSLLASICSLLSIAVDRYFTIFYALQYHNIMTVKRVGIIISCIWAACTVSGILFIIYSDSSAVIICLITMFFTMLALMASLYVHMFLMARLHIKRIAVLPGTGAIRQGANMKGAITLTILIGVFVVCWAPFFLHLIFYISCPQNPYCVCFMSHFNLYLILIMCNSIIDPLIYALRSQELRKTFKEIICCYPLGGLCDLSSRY
T1 sequence (P41968 whole entry): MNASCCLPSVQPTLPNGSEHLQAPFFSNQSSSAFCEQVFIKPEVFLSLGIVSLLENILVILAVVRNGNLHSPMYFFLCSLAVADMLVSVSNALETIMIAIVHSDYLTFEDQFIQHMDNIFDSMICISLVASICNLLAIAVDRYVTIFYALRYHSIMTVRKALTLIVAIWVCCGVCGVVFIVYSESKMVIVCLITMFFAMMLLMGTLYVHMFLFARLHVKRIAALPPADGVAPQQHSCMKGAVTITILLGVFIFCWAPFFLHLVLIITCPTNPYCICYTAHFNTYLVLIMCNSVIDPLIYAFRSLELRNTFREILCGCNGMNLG

| SMILES | Emax (human MC3R; [2]) [%] | MC4R selectivity vs MC1R (human MC4R) | MC4R selectivity vs MC3R (human MC4R) | Emax (human MC4R; [3]) [%] | EC50 (human MC3R; [2]) [nM] | further results |
| --- | --- | --- | --- | --- | --- | --- |
| CCCC[C@H](NC(=O)[C@H](CCCNC(=N)N)NC(C)=O)C(=O)N[C@H]1CSSC[C@@H](C(N)=O)NC(=O)[C@H](Cc2ccccc2)NC(=O)[C@H](CCCNC(=N)N)NC(=O)[C@@H](Cc2ccc(Br)cc2)NC(=O)[C@H](CCCNC(=N)N)NC1=O [CTX-1623, Arg-Nle-cyclo(Cys-Arg-D-Phe(4-Br)-Arg-Phe-Cys)] (Ac-R[Nle]CR[dPhe(4-Br)]RFC-NH2; disulfide 3-8) |  |  |  |  |  | Emax (human MC3R; [1]): 62%; Emax (human MC4R; [1]): 73% |
| CC(=O)N[C@@H](CCCNC(=N)N)C(=O)N[C@H]1CSSC[C@@H](C(N)=O)NC(=O)[C@@H](Cc2c[nH]c3ccccc23)NC(=O)[C@H](CCCNC(=N)N)NC(=O)[C@@H](Cc2ccc(Br)cc2)NC(=O)[C@@H](CCCNC(=N)N)NC(=O)[C@@H](C)NC1=O [CTX-1250, Arg-cyclo(Cys-D-Ala-D-Arg-D-Phe(4-Br)-Arg-D-Trp-Cys)] (Ac-RC[dA][dR][dPhe(4-Br)]R[dW]C-NH2; disulfide 2-8 (inferred)) | 10 | 1.06 | 11 | 8.7 |  |  |
| CC(=O)N[C@@H](CCCNC(=N)N)C(=O)N[C@H]1CSSC[C@@H](C(N)=O)NC(=O)[C@@H](Cc2c[nH]c3ccccc23)NC(=O)[C@@H](CCCNC(=N)N)NC(=O)[C@@H](Cc2ccccc2)NC(=O)[C@H](CCCNC(=N)N)NC(=O)[C@@H](C)NC1=O [CTX-1283, Arg-cyclo(Cys-D-Ala-Arg-D-Phe-D-Arg-D-Trp-Cys)] (Ac-RC[dA]R[dF][dR][dW]C-NH2; disulfide 2-8) | 7.8 | 0.03 | 0.12 | 55 |  |  |
| CC(=O)N[C@@H](CCCNC(=N)N)C(=O)N[C@H]1CSSC[C@@H](C(N)=O)NC(=O)[C@@H](Cc2c[nH]c3ccccc23)NC(=O)[C@H](CCCNC(=N)N)NC(=O)[C@H]2Cc3ccccc3CN2C(=O)[C@H](CCCNC(=N)N)NC(=O)[C@@H](C)NC1=O [CTX-1273, Arg-cyclo(Cys-D-Ala-Arg-D-Tic-Arg-D-Trp-Cys)] (Ac-RC[dA]R[dTic]R[dW]C-NH2; disulfide 2-8) | 3.7 | 0.05 | 0.64 | 32 |  |  |
| CC(=O)N[C@@H](CCCNC(=N)N)C(=O)N[C@H]1CSSC[C@@H](C(N)=O)NC(=O)[C@H](Cc2c[nH]c3ccccc23)NC(=O)[C@H](CCCNC(=N)N)NC(=O)[C@@H](Cc2ccc(Br)cc2)NC(=O)[C@H](Cc2c[nH]cn2)NC(=O)[C@@H](C)NC1=O [CTX-2206, Arg-cyclo(Cys-D-Ala-His-D-Phe(4-Br)-Arg-Trp-Cys)] | 28 |  | 7.35 | 98 | 22 | EC50 (human MC4R; agonist mode, hMC4R stable cell line, unit inferred): 3 nM |
| CCCC[C@H](NC(=O)[C@H](CCCNC(=N)N)NC(C)=O)C(=O)N[C@H]1CSSC[C@@H](C(N)=O)NC(=O)[C@H](Cc2c[nH]c3ccccc23)NC(=O)[C@H](CCCNC(=N)N)NC(=O)[C@@H](Cc2ccc(Br)cc2)NC(=O)[C@H](CCCNC(=N)N)NC1=O [CTX-1612, Arg-Nle-cyclo(Cys-Arg-D-Phe(4-Br)-Arg-Trp-Cys)] (Ac-R[Nle]CR[dPhe(4-Br)]RWC-NH2; disulfide 3-8 (inferred)) | 27 | 0.09 | 2.27 | 25 | 4.5 | EC50 (human MC4R; [3]): 2 nM |
| CC(=O)N[C@@H](CCCNC(=N)N)C(=O)N[C@H]1CSSC[C@@H](C(=O)N[C@@H](CCCNC(=N)N)C(=O)N[C@@H](Cc2ccccc2)C(N)=O)NC(=O)[C@@H](Cc2c[nH]c3ccccc23)NC(=O)[C@H](CCCNC(=N)N)NC(=O)[C@@H](Cc2ccc(Br)cc2)NC(=O)[C@H](CCCNC(=N)N)NC(=O)[C@@H](C)NC1=O [CTX-1220, Arg-cyclo(Cys-D-Ala-Arg-D-Phe(4-Br)-Arg-D-Trp-Cys)-Arg-Phe] (Ac-RC[dA]R[dPhe(4-Br)]R[dW]CRF-NH2; disulfide 2-8 (inferred)) | 21 | 1.53 | 3.82 | 76 |  |  |
| CCCC[C@H](NC(=O)[C@H](CCCNC(=N)N)NC(C)=O)C(=O)N[C@H]1CSSC[C@@H](C(N)=O)NC(=O)[C@@H](Cc2c[nH]c3ccccc23)NC(=O)[C@H](CCCNC(=N)N)NC(=O)[C@@H](Cc2ccc(Br)cc2)NC(=O)[C@H](CCCNC(=N)N)NC1=O [CTX-1613, Arg-Nle-cyclo(Cys-Arg-D-Phe(4-Br)-Arg-D-Trp-Cys)] (Ac-R[Nle]CR[dPhe(4-Br)]R[dW]C-NH2; disulfide 3-8 (inferred)) | 35 | 0.79 | 2.1 | 32 | 4 | EC50 (human MC4R; [3]): 1.9 nM |
| CC(=O)N[C@H]1CSSC[C@@H](C(N)=O)NC(=O)[C@H](Cc2c[nH]c3ccccc23)NC(=O)[C@H](CCCNC(=N)N)NC(=O)[C@@H](Cc2ccccc2)NC(=O)[C@H](Cc2c[nH]cn2)NC(=O)CNC1=O [CTX-1206, cyclo(Cys-Gly-His-D-Phe-Arg-Trp-Cys)] (Ac-CGH[dF]RWC-NH2; disulfide 1-7 (inferred)) |  |  |  |  |  | Emax (human MC3R; [1]): 94%; EC50 (human MC3R; HEK-293 cells stably expressing hMC3R, agonist mode): 12 nM; MC4R selectivity vs MC3R (human MC3R; MC4R versus MC3R): 23; Emax (human MC4R; [1]): 101%; EC50 (human MC4R; HEK-293 cells stably expressing hMC4R, agonist mode): 0.52 nM |
| CC(=O)N[C@@H](CCCNC(=N)N)C(=O)N[C@H]1CSSC[C@@H](C(N)=O)NC(=O)[C@@H](Cc2c[nH]c3ccccc23)NC(=O)[C@@H](CCCNC(=N)N)NC(=O)[C@@H](Cc2ccc(Br)cc2)NC(=O)[C@H](CCCNC(=N)N)NC(=O)[C@@H](C)NC1=O [CTX-1252, Arg-cyclo(Cys-D-Ala-Arg-D-Phe(4-Br)-D-Arg-D-Trp-Cys)] (Ac-RC[dA]R[dPhe(4-Br)][dR][dW]C-NH2; disulfide 2-8 (inferred)) | 1.1 | 0.04 | 0.06 | 4.4 |  |  |
| CC(=O)N[C@@H](CCCNC(=N)N)C(=O)N[C@H]1CSSC[C@@H](C(N)=O)NC(=O)[C@@H](Cc2c[nH]c3ccccc23)NC(=O)[C@H](CCCNC(=N)N)N(C)C(=O)[C@@H](Cc2ccc(Br)cc2)NC(=O)[C@H](CCCNC(=N)N)NC(=O)[C@@H](C)NC1=O [CTX-1251, Arg-cyclo(Cys-D-Ala-Arg-D-Phe(4-Br)-NMe-Arg-D-Trp-Cys)] (Ac-RC[dA]R[dPhe(4-Br)][NMeR][dW]C-NH2; disulfide 2-8) | 30 | 0.11 | 3.73 | 31 |  |  |
| CC(=O)N[C@@H](CCCNC(=N)N)C(=O)N[C@H]1CSSC[C@@H](C(N)=O)NC(=O)[C@@H](Cc2c[nH]c3ccccc23)NC(=O)[C@H](CCCNC(=N)N)NC(=O)[C@@H](Cc2c[nH]c3ccccc23)NC(=O)[C@H](CCCNC(=N)N)NC(=O)[C@@H](C)NC1=O [CTX-1244, Arg-cyclo(Cys-D-Ala-Arg-D-Trp-Arg-D-Trp-Cys)] (Ac-RC[dA]R[dW]R[dW]C-NH2; disulfide 2-8 (inferred)) |  | 0.26 | 0.11 |  | 13 | MC3R cAMP % max activation (human MC3R; [2]): (10%); MC4R cAMP % max activation (human MC4R; [3]): (42%); EC50 (human MC4R; [3]): 109 nM |
